# Columns and labels:
# human skin = assay: Human patch test; assay type: in vivo; conditions: 30 subjects
# Procedure: (§1) In order to evaluate the safety of the PPAR-α activator compound according to the present invention for application as a skin external preparation, an animal toxicity test and a human patch test were performed.
# (§2) To perform this evaluation, a single dose oral toxicity test using rats, a skin irritation test using rabbits, a skin sensitization test using guinea pigs and an ophthalmic mucous membrane irritation test using rabbits were performed as toxicity tests for PC-9S in animals. Those tests were performed based on “Toxicity Test Standards for Pharmaceutical Products” disclosed by the Korea Food & Drug Administration. Additionally, a human patch test for PC-9S was carried out on 30 subjects (average age: 24.1). […] However, when evaluating the overall results obtained from the other toxicity tests and the human patch test, it was considered that the pseudo-ceramide compound would not pose a safety problem.
# rabbits [1] = assay: Ophthalmic mucous membrane irritation test using rabbits; assay type: in vivo, rabbit
# Procedure: as §1, §2
# rats = assay: Single dose oral toxicity test using rats; assay type: in vivo, rat
# Procedure: as §1, §2
# rabbits [2] = assay: Skin irritation test using rabbits; assay type: in vivo, rabbit
# Procedure: as §1, §2
# guinea pigs = assay: Skin sensitization test using guinea pigs; assay type: in vivo, guinea pig
# Procedure: as §1, §2
smiles,measurement,setting,value
CCCCCCCCCCCCCCCCCC(=O)C(CCCCCCCCCCCCCCCC)C(=O)NCCO (stereo not drawn) [PC-9S],Human patch test result,human skin; 1% PC-9S,No irritation
same,Human patch test result,human skin; 10% PC-9S,No irritation
same,Ophthalmic mucous membrane irritation test using rabbits result,rabbits [1],No irritation
same,Single dose oral toxicity test (toxicity test) result,rats,No irritation
same,Skin irritation test using rabbits result,rabbits [2],slight skin irritation
same,Skin sensitization test using guinea pigs result,guinea pigs,No irritation

# — patent US20100173995A1, “Use of PPAR-alpha activator as inflammatory skin disease-treating agent and method for treating skin diseases using the same” (Neopharm Co., Ltd., priority 2009, published 2010)
